From ChEMBL document CHEMBL1201862, “PubChem BioAssay data set” (2004)
Active and inactive are the calls of the source.

Columns and labels:
Cytochrome P450 3A4 = Cytochrome P450 3A4 (Homo sapiens, UniProt P08684); conditions: Potency;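 further: confirmatory qHTS run detecting inhibitors and substrates of CYP3A4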
[1] = target: G-protein coupled receptor 55 (Homo sapiens, UniProt Q9Y2T6); experiment: inhibition of LPI-stimulated GPR55 beta-arrestin translocation – imaging, U2OS, beta-arrestin-GFP, LPI agonist, primary screen (AID 2013); format: functional;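 further: antagonist potency measured as reduced agonist-driven arrestin aggregation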
[2] = Luminescence Cell-Based Dose Confirmation HTS to Identify Activators of 5'UTR Stem-Loop Driven Alpha-Synuclein mRNA Translation in H4 Neuroglioblastoma Cells. [Related pubchem assays: 1829 (Project Summary), 1814 (Primary HTS)]; format: functional
[3] = Luminescence Cell-Based Dose Response HTS to Identify Activators of Luciferase Translation or Activity in H4 […] Cells. [Related pubchem assays: 1829 (Project Summary), 1814 (Primary HTS)]; format: functional
cells [4] = format: functional, cell-based
H4 = experiment: Luminescence Cell-Based Dose Response HTS to Identify Activators of 5'UTR Stem-Loop Driven Prion Protein mRNA Translation in H4 Neuroglioblastoma Cells. [Related pubchem assays: 1829 (Project Summary), 1814 (Primary HTS)]; format: functional; conditions: Homo sapiens
cells [5] = format: functional, cell-based; remark: listed apart in the source
[6] = target: Luciferin 4-monooxygenase (Photinus pyralis, UniProt P08659); experiment: inhibition of purified Photinus pyralis luciferase – biochemical, luminescence, dose response (AID 1891)
[7] = Luminescence Cell-Based Dose Confirmation HTS to Identify Inhibitors of Platelet Dense Granule Release. [Related pubchem assays: 1663 (Primary HTS), 1678 (Summary of Project)]; format: functional
Genome polyprotein = Genome polyprotein (dengue virus type 2, UniProt P29990); experiment: flavivirus cap methylation enzyme inhibition – biochemical, confirmation dose response, primary screen (AID 588689); format: functional
Fatty acid synthase [8] = target: T1, Fatty acid synthase (Homo sapiens, UniProt P49327); experiment: inhibition of human FAS-TE enzyme activity – biochemical, endpoint fluorescence intensity, uHTS hits, dose response (AID 624327); format: functional;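 further: fluorescence from hydrolysis of an O-methyl fluorescein acyl ester substrate by the enzyme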
Fatty acid synthase [9] = target: T1, Fatty acid synthase; experiment: inhibition of human FAS-TE enzyme activity – biochemical, kinetic fluorescence intensity, dose response (AID 624326); format: functional;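 further: rate of fluorescence rise from hydrolysis of a fluorogenic O-methyl fluorescein ester substrate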
Streptokinase A = target: T2, Streptokinase A (Streptococcus pyogenes serotype M1, UniProt P10520); experiment: viability-normalized secreted streptokinase activity reduction – plasminogen activation absorbance, OD405, dose response (AID 1914); format: functional, Streptococcus pyogenes M1 GAS;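 further: secreted streptokinase activity via plasminogen activation per viability signal from cell pellet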
T2 sequence (P10520 whole entry): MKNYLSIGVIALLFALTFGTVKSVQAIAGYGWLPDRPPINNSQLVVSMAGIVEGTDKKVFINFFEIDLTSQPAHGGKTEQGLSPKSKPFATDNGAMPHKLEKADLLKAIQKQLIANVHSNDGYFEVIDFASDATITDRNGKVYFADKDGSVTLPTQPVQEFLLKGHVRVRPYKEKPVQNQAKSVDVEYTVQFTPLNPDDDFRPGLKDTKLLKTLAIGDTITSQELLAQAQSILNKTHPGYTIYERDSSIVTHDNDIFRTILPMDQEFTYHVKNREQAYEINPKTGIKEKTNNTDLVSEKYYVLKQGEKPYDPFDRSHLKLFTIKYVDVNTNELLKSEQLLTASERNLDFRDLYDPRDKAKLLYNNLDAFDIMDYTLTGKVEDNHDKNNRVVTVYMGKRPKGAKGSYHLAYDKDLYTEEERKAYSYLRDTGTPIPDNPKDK

Streptococcus = experiment: GAS UMAA2166 growth inhibition – luminescence, BacTiterGlo, counter-screen for streptokinase expression inhibitor project, dose response (AID 1915); format: functional, organism-based;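 further: potency for reduction of bacterial viability or growth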
[10] = THP-1 cell cytotoxicity, dose response, cytotoxicity control for non-replicating M. tuberculosis project (AID 489025); format: functional
[11] = target: T3, Replicative DNA helicase DnaB (Mycobacterium tuberculosis, UniProt P9WMR3); experiment: DnaB intein splicing inhibitors, dose response, biochemical, cell-free fluorescence (AID 449749); format: functional
T3 sequence (P9WMR3 whole entry): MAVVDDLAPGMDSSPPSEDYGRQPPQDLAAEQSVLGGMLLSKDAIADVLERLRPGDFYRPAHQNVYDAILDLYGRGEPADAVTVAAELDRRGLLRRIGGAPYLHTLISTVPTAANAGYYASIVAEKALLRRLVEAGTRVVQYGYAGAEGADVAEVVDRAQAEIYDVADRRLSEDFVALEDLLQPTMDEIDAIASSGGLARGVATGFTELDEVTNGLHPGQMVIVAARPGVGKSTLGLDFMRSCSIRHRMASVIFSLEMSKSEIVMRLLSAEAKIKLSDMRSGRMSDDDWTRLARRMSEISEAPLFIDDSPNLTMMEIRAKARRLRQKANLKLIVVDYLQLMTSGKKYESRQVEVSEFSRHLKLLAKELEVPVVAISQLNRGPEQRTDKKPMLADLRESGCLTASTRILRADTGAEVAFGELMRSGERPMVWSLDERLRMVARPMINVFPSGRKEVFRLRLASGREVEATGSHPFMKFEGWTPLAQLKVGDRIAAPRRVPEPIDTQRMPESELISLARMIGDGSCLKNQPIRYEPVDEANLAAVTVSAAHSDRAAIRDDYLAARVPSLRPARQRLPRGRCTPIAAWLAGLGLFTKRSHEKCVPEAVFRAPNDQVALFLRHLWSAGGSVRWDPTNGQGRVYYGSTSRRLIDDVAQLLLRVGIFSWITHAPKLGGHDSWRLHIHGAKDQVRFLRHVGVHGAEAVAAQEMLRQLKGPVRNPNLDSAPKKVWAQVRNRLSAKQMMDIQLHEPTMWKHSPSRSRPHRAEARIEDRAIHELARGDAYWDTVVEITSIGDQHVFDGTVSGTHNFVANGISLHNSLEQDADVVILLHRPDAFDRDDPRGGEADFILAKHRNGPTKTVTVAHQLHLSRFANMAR

Protein RecA = target: T4, Protein RecA (Mycobacterium tuberculosis, UniProt P9WHJ3); experiment: Fluorescence Cell-Free Homogeneous Dose Retest to Identify Inhibitors of RecA-Intein Splicing Activity. [Related pubchem assays (depositor defined):AID2097, AID2223, AID489010, AID492950]; format: functional
T4 sequence (P9WHJ3 whole entry): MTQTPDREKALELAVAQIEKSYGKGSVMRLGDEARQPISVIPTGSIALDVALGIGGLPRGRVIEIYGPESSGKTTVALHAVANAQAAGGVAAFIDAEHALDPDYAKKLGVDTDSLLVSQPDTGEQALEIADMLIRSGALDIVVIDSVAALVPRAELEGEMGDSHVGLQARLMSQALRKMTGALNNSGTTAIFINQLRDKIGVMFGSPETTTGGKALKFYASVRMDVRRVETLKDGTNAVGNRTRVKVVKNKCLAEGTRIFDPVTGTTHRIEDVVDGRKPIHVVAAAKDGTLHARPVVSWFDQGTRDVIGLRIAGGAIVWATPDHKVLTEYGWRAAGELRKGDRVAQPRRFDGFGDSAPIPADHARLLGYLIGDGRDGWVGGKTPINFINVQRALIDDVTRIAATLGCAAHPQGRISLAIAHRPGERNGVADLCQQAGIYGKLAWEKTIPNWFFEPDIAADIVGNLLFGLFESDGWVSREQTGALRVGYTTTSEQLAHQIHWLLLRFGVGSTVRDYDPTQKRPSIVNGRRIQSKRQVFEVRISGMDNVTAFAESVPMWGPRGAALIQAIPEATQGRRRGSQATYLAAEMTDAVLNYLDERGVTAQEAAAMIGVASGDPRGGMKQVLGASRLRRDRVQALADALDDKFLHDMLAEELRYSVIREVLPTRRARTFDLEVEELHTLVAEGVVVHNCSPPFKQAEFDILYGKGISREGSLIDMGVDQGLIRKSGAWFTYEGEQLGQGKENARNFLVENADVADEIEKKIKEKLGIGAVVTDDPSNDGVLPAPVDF

[12] = viability of PTEN-deleted HCT116 cells – cell-based, HCT116 PTEN knockout, dose response (AID 1047); format: functional;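 further: HCT116 colon tumor cells with PTEN knocked out; cells exposed to compound for 60 hours before readout; potency for loss of cell viability measured by luminescence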
[13] = viability of HCT116 lacking mutant beta-catenin – cell-based, human colon tumor, dose response (AID 1045); format: functional;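 further: HCT116 colon tumor cells with beta catenin knocked out; cells exposed to compound for 60 hours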
[14] = target: T5, Heat shock factor protein 1 (Mus musculus, UniProt P38532); experiment: enhancement of HSF1-driven luciferase signal – cell-based, NIH3T3, luminescence, dose retest, confirmation (AID 435004); format: functional;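 further: stress induced by proteasome inhibitor MG132 added 30 min after compound; luciferase reporter driven by HSF1 response element in NIH3T3 cells; actives raise luminescence as potentiators of the MG132 stress response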
T5 sequence (P38532 whole entry): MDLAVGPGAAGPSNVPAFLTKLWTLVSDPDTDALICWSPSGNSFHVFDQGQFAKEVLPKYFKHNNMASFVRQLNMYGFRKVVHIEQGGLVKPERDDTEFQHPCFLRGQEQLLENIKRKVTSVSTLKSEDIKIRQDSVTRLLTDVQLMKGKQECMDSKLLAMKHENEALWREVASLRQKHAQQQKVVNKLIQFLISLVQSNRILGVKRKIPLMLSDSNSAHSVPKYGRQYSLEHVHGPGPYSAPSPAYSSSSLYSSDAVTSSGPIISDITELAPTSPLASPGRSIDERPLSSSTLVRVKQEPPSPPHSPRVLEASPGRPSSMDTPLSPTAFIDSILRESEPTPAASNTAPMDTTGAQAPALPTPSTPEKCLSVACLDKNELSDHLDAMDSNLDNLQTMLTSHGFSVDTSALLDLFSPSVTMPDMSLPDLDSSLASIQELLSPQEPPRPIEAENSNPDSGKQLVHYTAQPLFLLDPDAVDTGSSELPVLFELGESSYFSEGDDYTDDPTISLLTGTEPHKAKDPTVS

[15] = target: T6, Corticotropin-releasing factor receptor 2/Corticotropin-releasing factor-binding protein (Homo sapiens, UniProt P24387+Q13324); experiment: Dose Response confirmation of uHTS hits for small molecule antagonists of the CRF-binding protein and CRF-R2 receptor complex.; format: functional; conditions: read-out: IC50_Mean
T6 sequence (Q13324 whole entry): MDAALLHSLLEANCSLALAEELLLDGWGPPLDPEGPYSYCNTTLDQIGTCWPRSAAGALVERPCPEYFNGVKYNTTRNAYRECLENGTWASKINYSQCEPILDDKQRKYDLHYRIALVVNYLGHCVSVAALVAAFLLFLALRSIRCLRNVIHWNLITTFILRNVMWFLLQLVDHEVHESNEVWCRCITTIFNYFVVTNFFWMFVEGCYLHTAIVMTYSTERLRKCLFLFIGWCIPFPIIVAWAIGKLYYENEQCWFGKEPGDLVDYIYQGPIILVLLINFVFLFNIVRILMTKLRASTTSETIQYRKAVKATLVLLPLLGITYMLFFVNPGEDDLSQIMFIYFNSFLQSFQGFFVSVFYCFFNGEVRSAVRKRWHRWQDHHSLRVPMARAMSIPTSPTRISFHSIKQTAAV
T6 sequence (P24387 whole entry): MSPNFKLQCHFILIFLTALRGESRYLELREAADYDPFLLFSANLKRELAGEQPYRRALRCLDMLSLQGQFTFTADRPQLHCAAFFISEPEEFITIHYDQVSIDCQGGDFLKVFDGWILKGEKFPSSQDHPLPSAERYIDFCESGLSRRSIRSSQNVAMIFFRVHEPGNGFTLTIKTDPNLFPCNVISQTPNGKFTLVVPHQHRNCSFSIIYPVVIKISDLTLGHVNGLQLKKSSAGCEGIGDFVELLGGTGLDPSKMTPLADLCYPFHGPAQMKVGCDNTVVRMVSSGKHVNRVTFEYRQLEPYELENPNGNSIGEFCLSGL

[16] = target: T6, Corticotropin-releasing factor receptor 2/Corticotropin-releasing factor-binding protein; experiment: activators of CRF receptor 2 with binding protein – uHTS hits, confirmation (AID 602473); format: functional; conditions: read-out: EC50_Mean

Chain of Cytochrome P450 3A4 (P08684 whole entry): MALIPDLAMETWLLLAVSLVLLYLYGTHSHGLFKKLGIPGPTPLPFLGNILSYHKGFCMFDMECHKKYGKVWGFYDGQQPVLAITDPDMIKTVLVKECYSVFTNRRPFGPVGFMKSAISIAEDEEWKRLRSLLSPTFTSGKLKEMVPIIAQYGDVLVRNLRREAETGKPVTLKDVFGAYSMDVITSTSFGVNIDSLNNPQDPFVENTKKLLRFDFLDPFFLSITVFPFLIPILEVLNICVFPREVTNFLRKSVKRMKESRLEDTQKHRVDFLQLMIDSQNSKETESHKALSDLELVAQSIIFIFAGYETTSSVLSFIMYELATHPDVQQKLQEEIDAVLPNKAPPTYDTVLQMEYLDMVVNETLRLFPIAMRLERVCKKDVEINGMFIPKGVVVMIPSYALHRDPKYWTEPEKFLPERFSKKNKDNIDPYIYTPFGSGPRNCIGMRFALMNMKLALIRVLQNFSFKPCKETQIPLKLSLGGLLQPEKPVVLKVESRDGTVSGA
Chain of G-protein coupled receptor 55 (Q9Y2T6 whole entry): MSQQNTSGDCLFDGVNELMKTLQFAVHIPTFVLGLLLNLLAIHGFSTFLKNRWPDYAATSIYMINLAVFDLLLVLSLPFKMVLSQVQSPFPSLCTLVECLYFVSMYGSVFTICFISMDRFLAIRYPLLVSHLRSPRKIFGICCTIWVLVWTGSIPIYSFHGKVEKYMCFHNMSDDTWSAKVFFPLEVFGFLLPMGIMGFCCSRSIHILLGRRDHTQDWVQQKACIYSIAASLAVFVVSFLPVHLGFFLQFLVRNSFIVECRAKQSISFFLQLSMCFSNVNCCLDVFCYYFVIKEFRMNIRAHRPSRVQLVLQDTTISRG
T1 sequence (P49327 whole entry): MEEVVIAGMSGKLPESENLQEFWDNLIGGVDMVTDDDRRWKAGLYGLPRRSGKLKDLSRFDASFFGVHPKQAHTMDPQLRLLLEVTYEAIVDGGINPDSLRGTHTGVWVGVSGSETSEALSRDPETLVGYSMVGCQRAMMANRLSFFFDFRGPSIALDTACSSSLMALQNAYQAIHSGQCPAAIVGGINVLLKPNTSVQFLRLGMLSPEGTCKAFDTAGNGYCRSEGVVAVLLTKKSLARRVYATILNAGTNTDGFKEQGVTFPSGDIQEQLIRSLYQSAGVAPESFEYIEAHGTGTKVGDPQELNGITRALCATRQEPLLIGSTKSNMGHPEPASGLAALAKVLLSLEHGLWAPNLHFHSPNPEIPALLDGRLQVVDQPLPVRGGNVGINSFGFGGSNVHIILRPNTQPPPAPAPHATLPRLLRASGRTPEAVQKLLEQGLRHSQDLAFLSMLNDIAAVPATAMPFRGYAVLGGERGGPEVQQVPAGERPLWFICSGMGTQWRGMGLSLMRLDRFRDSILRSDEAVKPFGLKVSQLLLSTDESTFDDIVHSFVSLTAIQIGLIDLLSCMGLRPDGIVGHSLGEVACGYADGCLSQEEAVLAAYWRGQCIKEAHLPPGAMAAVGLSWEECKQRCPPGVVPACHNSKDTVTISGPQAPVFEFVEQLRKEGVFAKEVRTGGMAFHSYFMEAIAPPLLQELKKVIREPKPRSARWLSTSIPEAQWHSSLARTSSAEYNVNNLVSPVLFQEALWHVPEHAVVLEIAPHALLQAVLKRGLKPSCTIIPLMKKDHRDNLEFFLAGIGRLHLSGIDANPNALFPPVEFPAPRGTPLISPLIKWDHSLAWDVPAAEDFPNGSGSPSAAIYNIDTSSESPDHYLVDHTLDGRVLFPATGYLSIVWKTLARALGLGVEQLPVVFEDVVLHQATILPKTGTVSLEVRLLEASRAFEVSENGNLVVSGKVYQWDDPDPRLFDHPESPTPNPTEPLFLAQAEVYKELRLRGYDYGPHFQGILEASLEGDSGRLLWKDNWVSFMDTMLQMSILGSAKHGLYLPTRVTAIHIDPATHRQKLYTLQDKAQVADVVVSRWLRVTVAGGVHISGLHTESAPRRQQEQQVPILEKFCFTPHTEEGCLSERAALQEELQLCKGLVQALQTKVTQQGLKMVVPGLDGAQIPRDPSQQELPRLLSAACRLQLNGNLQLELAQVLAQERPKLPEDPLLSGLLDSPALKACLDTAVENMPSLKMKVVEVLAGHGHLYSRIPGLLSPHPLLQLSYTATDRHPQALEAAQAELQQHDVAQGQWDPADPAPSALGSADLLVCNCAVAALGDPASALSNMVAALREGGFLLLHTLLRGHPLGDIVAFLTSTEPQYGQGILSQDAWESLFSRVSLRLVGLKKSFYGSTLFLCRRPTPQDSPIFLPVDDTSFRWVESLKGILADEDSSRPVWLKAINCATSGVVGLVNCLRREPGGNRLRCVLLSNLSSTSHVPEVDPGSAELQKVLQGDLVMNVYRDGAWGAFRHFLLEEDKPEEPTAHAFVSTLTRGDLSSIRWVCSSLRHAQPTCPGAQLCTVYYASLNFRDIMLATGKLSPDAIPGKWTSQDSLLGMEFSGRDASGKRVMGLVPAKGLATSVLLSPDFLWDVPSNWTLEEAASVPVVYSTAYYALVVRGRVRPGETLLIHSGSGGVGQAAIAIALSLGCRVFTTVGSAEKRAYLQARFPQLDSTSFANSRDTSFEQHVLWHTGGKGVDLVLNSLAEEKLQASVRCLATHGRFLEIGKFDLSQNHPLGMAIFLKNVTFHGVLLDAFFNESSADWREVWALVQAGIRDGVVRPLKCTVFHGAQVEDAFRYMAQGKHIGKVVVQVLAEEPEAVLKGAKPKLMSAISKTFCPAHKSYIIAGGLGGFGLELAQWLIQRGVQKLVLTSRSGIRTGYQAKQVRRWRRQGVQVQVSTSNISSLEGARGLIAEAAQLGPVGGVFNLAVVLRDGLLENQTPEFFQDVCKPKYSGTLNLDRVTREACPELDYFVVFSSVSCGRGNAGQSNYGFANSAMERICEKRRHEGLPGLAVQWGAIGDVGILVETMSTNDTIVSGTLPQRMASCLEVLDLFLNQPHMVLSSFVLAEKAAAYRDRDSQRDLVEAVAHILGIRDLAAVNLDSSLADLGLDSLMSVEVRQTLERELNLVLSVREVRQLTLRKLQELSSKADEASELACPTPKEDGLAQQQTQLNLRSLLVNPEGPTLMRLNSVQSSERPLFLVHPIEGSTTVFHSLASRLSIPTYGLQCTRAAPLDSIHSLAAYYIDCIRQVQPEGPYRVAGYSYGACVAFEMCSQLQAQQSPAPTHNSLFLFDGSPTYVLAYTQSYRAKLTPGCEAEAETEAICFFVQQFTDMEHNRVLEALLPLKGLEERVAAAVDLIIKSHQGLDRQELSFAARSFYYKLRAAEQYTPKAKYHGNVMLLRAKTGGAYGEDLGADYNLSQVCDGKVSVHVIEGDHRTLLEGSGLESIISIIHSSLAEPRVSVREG
Chain of Luciferin 4-monooxygenase (P08659 whole entry): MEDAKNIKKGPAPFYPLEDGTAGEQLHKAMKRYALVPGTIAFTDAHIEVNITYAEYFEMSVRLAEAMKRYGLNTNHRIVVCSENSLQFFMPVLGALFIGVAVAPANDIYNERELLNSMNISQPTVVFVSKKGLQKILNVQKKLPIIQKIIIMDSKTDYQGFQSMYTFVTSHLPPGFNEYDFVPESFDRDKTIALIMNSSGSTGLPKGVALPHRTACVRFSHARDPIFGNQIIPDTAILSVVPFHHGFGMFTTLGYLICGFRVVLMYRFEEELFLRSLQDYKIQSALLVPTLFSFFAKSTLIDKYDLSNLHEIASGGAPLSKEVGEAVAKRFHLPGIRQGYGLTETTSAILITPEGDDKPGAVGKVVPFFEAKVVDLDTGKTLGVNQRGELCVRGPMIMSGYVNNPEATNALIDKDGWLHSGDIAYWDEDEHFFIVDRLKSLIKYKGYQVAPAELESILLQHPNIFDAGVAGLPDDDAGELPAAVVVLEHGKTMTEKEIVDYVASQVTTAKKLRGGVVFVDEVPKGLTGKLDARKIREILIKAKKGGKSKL
Chain of Genome polyprotein (P29990 2492-3391 limits assumed): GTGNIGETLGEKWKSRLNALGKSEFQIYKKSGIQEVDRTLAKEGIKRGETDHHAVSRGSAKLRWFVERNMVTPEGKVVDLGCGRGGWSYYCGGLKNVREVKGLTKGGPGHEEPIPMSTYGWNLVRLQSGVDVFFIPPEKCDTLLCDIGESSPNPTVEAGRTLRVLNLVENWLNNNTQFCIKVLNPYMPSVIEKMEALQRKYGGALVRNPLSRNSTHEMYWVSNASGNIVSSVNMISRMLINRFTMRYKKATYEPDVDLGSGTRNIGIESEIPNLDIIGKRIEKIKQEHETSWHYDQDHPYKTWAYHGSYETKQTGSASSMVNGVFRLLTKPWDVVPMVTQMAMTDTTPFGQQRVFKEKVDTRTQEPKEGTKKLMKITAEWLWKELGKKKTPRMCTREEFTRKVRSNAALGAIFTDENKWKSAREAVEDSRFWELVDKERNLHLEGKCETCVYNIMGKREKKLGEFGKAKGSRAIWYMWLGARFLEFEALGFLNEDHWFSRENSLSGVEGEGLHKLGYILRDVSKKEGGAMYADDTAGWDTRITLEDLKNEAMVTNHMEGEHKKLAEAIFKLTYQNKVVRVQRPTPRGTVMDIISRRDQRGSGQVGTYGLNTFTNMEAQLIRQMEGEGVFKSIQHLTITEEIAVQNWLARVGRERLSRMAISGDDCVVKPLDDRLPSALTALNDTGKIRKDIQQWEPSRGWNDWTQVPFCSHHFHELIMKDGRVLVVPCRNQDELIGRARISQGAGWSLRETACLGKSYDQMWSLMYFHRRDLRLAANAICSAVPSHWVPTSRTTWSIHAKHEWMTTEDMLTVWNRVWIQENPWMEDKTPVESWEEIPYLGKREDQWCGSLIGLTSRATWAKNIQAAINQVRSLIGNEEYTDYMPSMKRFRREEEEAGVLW

COc1c(O)cc2c(-c3ccccc3)cc(=O)oc2c1OC [KUHLMANNIN]
AC50 (Cytochrome P450 3A4): 31.6 µM (inconclusive)

CC1(C)C2(Cl)C(Cl)C(Cl)C(Cl)(C(Cl)Cl)C1(Cl)C2Cl (stereo unspecified) [STROBANE]
AC50 (Cytochrome P450 3A4): 15.8 µM (inconclusive)

COc1ccc(CNCc2cc3c(C(C)(C)C)nn(-c4ccccc4)c3[nH]c2=O)cc1
IC50 [1]: 2.18 µM (active)

COC(=O)[C@@]1(C)C[C@@H]1[C@@H](NC(=O)[C@@]1(C)C[C@@H]1[C@@H](NC(=O)[C@@]1(C)C[C@@H]1[C@@H](NC(=O)[C@@]1(C)C[C@@H]1[C@@H](NC(=O)OCc1ccccc1)c1ccccc1)c1ccccc1)c1ccccc1)c1ccccc1
AC50 (Cytochrome P450 3A4): 0.2 µM (inconclusive)

N=C(NOC(=O)Cc1cccs1)c1ccccc1
EC50 [2]: 3.81 µM (active)
EC50 [3]: 11.1 µM (active)
EC50 (cells [4]): > 350 µM (not active)
EC50 (H4): 9.96 µM (active)
EC50 (cells [5]): 20.7 µM (active)

Cc1cc(S(=O)(=O)ON2C(=O)c3ccccc3C2=O)ccc1F
EC50 (cells [4]): > 350 µM (not active)
EC50 [6]: > 112 µM (not active)
EC50 [7]: > 112 µM (not active)
EC50 (cells [5]): > 350 µM (not active)
IC50 (Genome polyprotein): > 100 µM (active)
IC50 (Fatty acid synthase [8]): 2.43 µM (active)
IC50 (Fatty acid synthase [9]): 2.07 µM (active)

COC(=O)c1c(NC(NC(=O)C(C)(C)C)C(Cl)(Cl)Cl)sc2c1CCC2 (stereo unspecified)
EC50 (Streptokinase A): 2.8 µM (active)
IC50 [1]: 2.01 µM (active)
EC50 (Streptococcus): 20.3 µM (active)

CCCCC(CC)COCCCN (stereo unspecified)
AC50 (Cytochrome P450 3A4): 31.6 µM (inconclusive)

O=S(=O)(Nc1ccc(O)c2ccccc12)c1ccc(F)cc1
CC50 [10]: > 40 µM (active)
AC50 [11]: 0.214 µM (active)
EC50 (Protein RecA): 0.0466 µM (active)

CCOC(=O)C(C)(C)N(Cc1ccc(C)cc1)S(=O)(=O)c1ccc(Cl)c([N+](=O)[O-])c1
IC50 [1]: 3.61 µM (active)
EC50 [12]: 17.7 µM (active)
EC50 [13]: 15.3 µM (active)
EC50 [14]: 20.1 µM (active)
IC50 [15]: > 47.1 µM (inactive)
EC50 [16]: > 53 µM (inactive)

COC(=O)c1ccc(CN2[C@H](C(=O)OC)C[C@@]3(O)[C@H](O)[C@H](O)[C@H](O)C[C@@H]23)cc1
AC50 (Cytochrome P450 3A4): 12.6 µM (inconclusive)

CCCn1c(-c2ccc(F)cc2)nc2c(N(C)CCN(C)C)nc(C)nc21
AC50 (Cytochrome P450 3A4): 25.1 µM (inconclusive)
